In paper PMC7481482, “Development of Anthraquinone Derivatives as Ectonucleoside Triphosphate Diphosphohydrolase (NTPDase) Inhibitors With Selectivity for NTPDase2 and NTPDase3” (Frontiers in Pharmacology, 2020):

How the values were obtained:
human NTPDase1 = biological target: T1, human NTPDase1 (Homo sapiens, UniProt P49961); assay: Malachite green assay, human NTPDase1; assay type: biochemical; settings: 2 μM compound; 50 µM ATP; COS-7 membrane preparation; read-out: % inhibition at 2 μM concentration, NTPDase1
T1 construct: expressed in transfected cells; host or cells: COS-7 cells (membrane preparation)
T1 sequence (P49961 1-510): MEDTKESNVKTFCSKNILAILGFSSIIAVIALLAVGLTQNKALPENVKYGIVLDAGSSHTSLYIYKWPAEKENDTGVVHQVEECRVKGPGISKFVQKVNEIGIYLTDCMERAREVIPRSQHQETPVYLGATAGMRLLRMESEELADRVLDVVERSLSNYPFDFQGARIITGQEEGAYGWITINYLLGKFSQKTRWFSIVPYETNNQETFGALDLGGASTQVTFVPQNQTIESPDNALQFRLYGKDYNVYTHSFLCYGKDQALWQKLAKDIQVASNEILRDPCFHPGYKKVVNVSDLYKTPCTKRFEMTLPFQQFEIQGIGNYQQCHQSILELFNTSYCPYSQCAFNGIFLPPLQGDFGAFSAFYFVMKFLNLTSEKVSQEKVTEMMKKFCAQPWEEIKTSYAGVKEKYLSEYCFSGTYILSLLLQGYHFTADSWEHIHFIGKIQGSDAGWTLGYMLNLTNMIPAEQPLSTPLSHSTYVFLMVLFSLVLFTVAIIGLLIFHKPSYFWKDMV
In short: (§1)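 COS-7 membranes expressing each NTPDase were preincubated with compound for 5 min at 37 °C, pH 7.4 HEPES buffer with 2 mM CaCl2/1 mM MgCl2. ATP was 50 µM for NTPDase1 and 100 µM for -2, -3, -8; reaction ran 15 min at 37 °C. Released phosphate read by malachite green at 600 nm; screen at 2 µM, IC50 over 0.03–30 µM in 2% DMSO.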

human NTPDase2 = biological target: T2, human NTPDase2 (Homo sapiens, UniProt Q9Y5L3); assay: Malachite green assay, human NTPDase2; assay type: biochemical; settings: 2 μM compound; 100 µM ATP; COS-7 membrane preparation; read-out: % inhibition at 2 μM concentration, NTPDase2
T2 construct: expressed in transfected cells; host or cells: COS-7 cells (membrane preparation)
T2 sequence (Q9Y5L3 1-495): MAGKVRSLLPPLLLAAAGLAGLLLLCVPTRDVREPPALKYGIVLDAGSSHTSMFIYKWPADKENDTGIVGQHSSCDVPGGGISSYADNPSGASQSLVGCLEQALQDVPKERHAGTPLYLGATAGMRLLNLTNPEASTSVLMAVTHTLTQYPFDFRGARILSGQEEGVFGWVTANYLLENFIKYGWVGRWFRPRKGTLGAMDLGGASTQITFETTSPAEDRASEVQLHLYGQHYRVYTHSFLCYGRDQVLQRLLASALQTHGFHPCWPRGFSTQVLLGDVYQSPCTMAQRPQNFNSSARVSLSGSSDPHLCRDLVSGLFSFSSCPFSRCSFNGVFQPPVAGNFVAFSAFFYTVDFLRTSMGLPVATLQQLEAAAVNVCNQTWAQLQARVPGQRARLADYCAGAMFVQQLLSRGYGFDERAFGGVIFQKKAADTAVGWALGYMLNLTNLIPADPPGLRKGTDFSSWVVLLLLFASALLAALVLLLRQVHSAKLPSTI
In short: as §1

rat NTPDase1 = settings: rat enzyme; ref Baqi et al., 2009b; cited from earlier work

## Nc1c(S(=O)(=O)O)cc(Nc2cccc3ccccc23)c2c1C(=O)c1ccccc1C2=O [Compound 15]
Human NTPDase1
  inhibition at 2 µM: -19%
Human NTPDase2
  inhibition at 2 µM: 31%
Rat NTPDase1
  IC50: > 100 µM
